Consider two molecules from ChEMBL document CHEMBL5120782, “Structure and Candidate Biosynthetic Gene Cluster of a Manumycin-Type Metabolite from Salinispora pacifica” (J Nat Prod, 2022).

One experiment concerns NCI-H460. The experiment in a line: Cytotoxicity against human NCI-H460 cells assessed as reduction in cell viability incubated for 48 hrs by MTT assay. It counts as functional, cell-based. As to conditions: NCI-H460, 48 h. A general note: Tetrazolium dyes change colour on reduction, which living cells bring about.
Experiment [1] can be described thus: Antibacterial activity against Bacillus oceanisediminis CNY-977 assessed as reduction in microbial growth incubated for 18 hrs by CLSI based method. It counts as functional. The following applies: Cytobacillus oceanisediminis.

Consider `CCCC/C=C/C=C/C=C/C=N/NN=O`, for which the EC50 (commonly the concentration giving half of the maximal effect) with NCI-H460 was determined as 5.5 µM.

`CC(C)=C[C@H](C)C[C@H](C)/C=C(\CO)C(=O)NC1=C[C@](O)(CCC(N)=O)[C@H]2O[C@H]2C1=O`: the MIC (in general, the lowest concentration found to suppress growth) in experiment [1] is 50 µM.
